Assay results reported in patent US20230107642A1 (Erasca, Inc., priority 2020, published 2023).

Target: T1, K-Ras G12C (Homo sapiens, UniProt P01116, G12C)
T1 construct: This protein contained 188 amino acids in total, including an N-terminal 6-Histidine tag; made in house; host or cells: E. coli BL21
Assay: CAF assay (% CAF; method in Example 7, not in this part)
Assay type: binding
Conditions: 10 uM compound, 1 h incubation

SMILES	% CAF @ 10 uM, 1h
C=CC(=O)N1[C@H](C)CN(c2nc(=O)n3c4c(c(-c5ccc(F)cc5F)c(C(F)(F)F)cc24)SC[C@@H]3COC)C[C@@H]1C (atropisomer, axis not shown) [Example 547, (3S,10R)-7-((3S,5R)-4-acryloyl-3,5-dimethylpiperazin-1-yl)-10-(2,4-difluorophenyl)-3-(methoxymethyl)-9-(trifluoromethyl)-2,3-dihydro-5H-[1,4]thiazino[2,3,4-ij]quinazolin-5-one]	96.7%
C=CC(=O)N1CCN(c2nc(=O)n3c4c(c(-c5ccc(F)cc5F)c(C(F)(F)F)cc24)SC[C@@H]3COCOC)[C@@H](C)C1 (atropisomer, axis not shown) [Example 548, (3S,10R)-7-((S)-4-acryloyl-2-methylpiperazin-1-yl)-10-(2,4-difluorophenyl)-3-((methoxymethoxy)methyl)-9-(trifluoromethyl)-2,3-dihydro-5H-[1,4]thiazino[2,3,4-ij]quinazolin-5-one]	95.7%
C=CC(=O)N1CCN(c2nc(=O)n3c4c(c(-c5ccc(F)cc5F)c(C(F)(F)F)cc24)SC[C@@H]3COCOC)[C@@H](C)C1 (atropisomer, axis not shown) [Example 549, (3S,10S)-7-((S)-4-acryloyl-2-methylpiperazin-1-yl)-10-(2,4-difluorophenyl)-3-((methoxymethoxy)methyl)-9-(trifluoromethyl)-2H-[1,4]thiazino[2,3,4-ij]quinazolin-5(3H)-one]	80.2%
C=CC(=O)N1CCN(c2nc(=O)n3c4c(c(-c5cc(Cl)c(F)cc5F)c(C(F)(F)F)cc24)SC[C@@H]3COCOC)[C@@H](C)C1 (atropisomer, axis not shown) [Example 552, (3S,10R)-7-((S)-4-acryloyl-2-methylpiperazin-1-yl)-10-(5-chloro-2,4-difluorophenyl)-3-((methoxymethoxy)methyl)-9-(trifluoromethyl)-2,3-dihydro-5H-[1,4]thiazino[2,3,4-ij]quinazolin-5-one]	62.2%
C=CC(=O)N1CCN(c2nc(=O)n3c4c(c(-c5cc(Cl)c(F)cc5F)c(C(F)(F)F)cc24)SC[C@@H]3COCOC)[C@@H](C)C1 (atropisomer, axis not shown) [Example 553, (3S,10S)-7-((S)-4-acryloyl-2-methylpiperazin-1-yl)-10-(5-chloro-2,4-difluorophenyl)-3-((methoxymethoxy)methyl)-9-(trifluoromethyl)-2H-[1,4]thiazino[2,3,4-ij]quinazolin-5(3H)-one]	37%
C=CC(=O)N1C[C@H](C)N(c2nc(=O)n3c4c(c(-c5cc(Cl)c(F)cc5F)c(C(F)(F)F)cc24)SC[C@@H]3COCCOC)C[C@H]1C (atropisomer, axis not shown) [Example 554, (3S,10S)-7-((2S,5R)-4-acryloyl-2,5-dimethylpiperazin-1-yl)-10-(5-chloro-2,4-difluorophenyl)-3-((2-methoxyethoxy)methyl)-9-(trifluoromethyl)-2H-[1,4]thiazino[2,3,4-ij]quinazolin-5(3H)-one]	11.3%
C=CC(=O)N1C[C@H](C)N(c2nc(=O)n3c4c(c(-c5cc(Cl)c(F)cc5F)c(C(F)(F)F)cc24)SC[C@@H]3COCCOC)C[C@H]1C (atropisomer, axis not shown) [Example 555, (3S,10R)-7-((2S,5R)-4-acryloyl-2,5-dimethylpiperazin-1-yl)-10-(5-chloro-2,4-difluorophenyl)-3-((2-methoxyethoxy)methyl)-9-(trifluoromethyl)-2,3-dihydro-5H-[1,4]thiazino[2,3,4-ij]quinazolin-5-one]	67.6%
C=CC(=O)N1C[C@H](C)N(c2nc(=O)n3c4c(c(-c5cc(Cl)c(F)cc5F)c(C(F)(F)F)cc24)SC[C@@H]3CN2CCN(CC(F)F)CC2)C[C@H]1C (atropisomer, axis not shown) [Example 556, (3S,10R)-7-((2S,5R)-4-acryloyl-2,5-dimethylpiperazin-1-yl)-10-(5-chloro-2,4-difluorophenyl)-3-((4-(2,2-difluoroethyl)piperazin-1-yl)methyl)-9-(trifluoromethyl)-2H-[1,4]thiazino[2,3,4-ij]quinazolin-5(3H)-one]	73.1%
C=CC(=O)N1C[C@H](C)N(c2nc(=O)n3c4c(c(-c5cc(Cl)c(F)cc5F)c(C(F)(F)F)cc24)SC[C@@H]3CN2CCN(CC(F)F)CC2)C[C@H]1C (atropisomer, axis not shown) [Example 557, (3S,10S)-7-((2S,5R)-4-acryloyl-2,5-dimethylpiperazin-1-yl)-10-(5-chloro-2,4-difluorophenyl)-3-((4-(2,2-difluoroethyl)piperazin-1-yl)methyl)-9-(trifluoromethyl)-2H-[1,4]thiazino[2,3,4-ij]quinazolin-5(3H)-one]	21.2%
C=CC(=O)N1[C@H](C)CN(c2nc(=O)n3c4c(c(-c5cc(Cl)c(F)cc5F)c(C(F)(F)F)cc24)SC[C@@H]3COC)C[C@@H]1C (atropisomer, axis not shown) [Example 563, (3S,10R)-7-((3S,5R)-4-acryloyl-3,5-dimethylpiperazin-1-yl)-10-(5-chloro-2,4-difluorophenyl)-3-(methoxymethyl)-9-(trifluoromethyl)-2,3-dihydro-5H-[1,4]thiazino[2,3,4-ij]quinazolin-5-one]	93.9%
C=CC(=O)N1[C@H](C)CN(c2nc(=O)n3c4c(c(-c5cc(Cl)c(F)cc5F)c(C(F)(F)F)cc24)SC[C@@H]3COC)C[C@@H]1C (atropisomer, axis not shown) [Example 564, (3S,10S)-7-((3S,5R)-4-acryloyl-3,5-dimethylpiperazin-1-yl)-10-(5-chloro-2,4-difluorophenyl)-3-(methoxymethyl)-9-(trifluoromethyl)-2,3-dihydro-5H-[1,4]thiazino[2,3,4-ij]quinazolin-5-one]	80.8%
C=CC(=O)N1[C@H](C)CN(c2nc(=O)n3c4c(c(-c5cc(Cl)c(F)cc5F)c(C(F)(F)F)cc24)SC[C@@H]3CN2CCC3(CC2)COC3)C[C@@H]1C (atropisomer, axis not shown) [Example 565, (3S,10S)-3-((2-oxa-7-azaspiro[3.5]nonan-7-yl)methyl)-7-((3S,5R)-4-acryloyl-3,5-dimethylpiperazin-1-yl)-10-(5-chloro-2,4-difluorophenyl)-9-(trifluoromethyl)-2,3-dihydro-5H-[1,4]thiazino[2,3,4-ij]quinazolin-5-one]	48.3%
C=CC(=O)N1[C@H](C)CN(c2nc(=O)n3c4c(c(-c5cc(Cl)c(F)cc5F)c(C(F)(F)F)cc24)SC[C@@H]3CN2CCC3(CC2)COC3)C[C@@H]1C (atropisomer, axis not shown) [Example 566, (3S,10R)-3-((2-oxa-7-azaspiro[3.5]nonan-7-yl)methyl)-7-((3S,5R)-4-acryloyl-3,5-dimethylpiperazin-1-yl)-10-(5-chloro-2,4-difluorophenyl)-9-(trifluoromethyl)-2,3-dihydro-5H-[1,4]thiazino[2,3,4-ij]quinazolin-5-one]	77.7%
C=CC(=O)N1C[C@H](C)N(c2nc(=O)n3c4c(c(-c5cccc6cnn(C)c56)c(Cl)cc24)SC[C@@H]3CN2CCN(CC(F)F)CC2)C[C@H]1C (atropisomer, axis not shown) [Example 569, (3S,10R)-7-((2S,5R)-4-acryloyl-2,5-dimethylpiperazin-1-yl)-9-chloro-3-((4-(2,2-difluoroethyl)piperazin-1-yl)methyl)-10-(1-methyl-1H-indazol-7-yl)-2,3-dihydro-5H-[1,4]thiazino[2,3,4-ij]quinazolin-5-one]	93.4%
C=CC(=O)N1C[C@H](C)N(c2nc(=O)n3c4c(c(-c5cccc6cnn(C)c56)c(Cl)cc24)SC[C@@H]3CN2CCN(CC(F)F)CC2)C[C@H]1C (atropisomer, axis not shown) [Example 570, (3S,10S)-7-((2S,5R)-4-acryloyl-2,5-dimethylpiperazin-1-yl)-9-chloro-3-((4-(2,2-difluoroethyl)piperazin-1-yl)methyl)-10-(1-methyl-1H-indazol-7-yl)-2,3-dihydro-5H-[1,4]thiazino[2,3,4-ij]quinazolin-5-one]	0%
C=CC(=O)N1[C@H](C)CN(c2nc(=O)n3c4c(c(-c5ccc(F)cc5F)c(C(F)(F)F)cc24)SC[C@@H]3CN2CCC3(CC2)COC3)C[C@@H]1C (atropisomer, axis not shown) [Example 576, (3S,10S)-3-(2-oxa-7-azaspiro[3.5]nonan-7-ylmethyl)-7-((3S,5R)-4-acryloyl-3,5-dimethylpiperazin-1-yl)-10-(2,4-difluorophenyl)-9-(trifluoromethyl)-2H-[1,4]thiazino[2,3,4-ij]quinazolin-5(3H)-one]	80.5%
C=CC(=O)N1[C@H](C)CN(c2nc(=O)n3c4c(c(-c5ccc(F)cc5F)c(C(F)(F)F)cc24)SC[C@@H]3CN2CCC3(CC2)COC3)C[C@@H]1C (atropisomer, axis not shown) [Example 577, (3S)-3-(2-oxa-7-azaspiro[3.5]nonan-7-ylmethyl)-7-((3S,5R)-4-acryloyl-3,5-dimethylpiperazin-1-yl)-10-(2,4-difluorophenyl)-9-(trifluoromethyl)-2H-[1,4]thiazino[2,3,4-ij]quinazolin-5(3H)-one]	74.8%
C=CC(=O)N1CCN(c2nc(=O)n3c4c(c(-c5ccc(F)cc5F)c(C(F)(F)F)cc24)SC[C@@H]3COC)CC1 (atropisomer, axis not shown) [Example 578, (3S,10R)-7-(4-acryloylpiperazin-1-yl)-10-(2,4-difluorophenyl)-3-(methoxymethyl)-9-(trifluoromethyl)-2,3-dihydro-5H-[1,4]thiazino[2,3,4-ij]quinazolin-5-one]	98%
